Data reported in patent publication US20220288057A1, “CONJOINT THERAPY FOR TREATING SEIZURE DISORDERS” (XENON PHARMACEUTICALS INC., priority 2021, published 2022).
Read-outs that look alike come from different tables or passages of the source.

How the values were obtained:
CF-1 mice = test: Observation for clinical signs in 6 Hz studies; type: in vivo, mouse; conditions: Compound A 8 mg/kg PO, Study 3A
Description: Any qualitative changes from normal behavior were recorded.

[1] = test system: tonic hindlimb seizure following corneal stimulation in CF-1 mice; test: Mouse maximal electroshock (MES) assay, 60 Hz 50 mA corneal stimulation; type: in vivo; conditions: for IC50: Mus musculus
Description: The interaction of Compound A with other ASMs was evaluated after oral dosing in the mouse maximal electroshock (MES) assay to determine whether some combinations were favorable or unfavorable. Efficacy was quantified by calculating the fraction of animals with a tonic hindlimb seizure following corneal stimulation. Compound Preparation: Compound A was initially solubilized in DMSO. This solution was then added into a 0.5% methyl cellulose solution to create a more even and less aggregated compound suspension. Serial dilutions were prepared from the tube with the highest concentration of Compound A and the compound suspensions were further vortexed prior to animal dosing. The final concentration of DMSO was 5%, an amount with no apparent toxicity or neuroprotection in the MES assay. […] Animals: Adult male CF-1 albino mice (25-35 g) purchased from Harlan-Envigo were used. The mice were housed four per cage and had access to filtered water and chow ad libidum, throughout the experiment. MES Assay: Compounds were administered orally by gavage before testing unless indicated otherwise. During MES testing, a 60-Hz alternating current (50 mA) was delivered for 0.2 seconds through corneal electrodes to the mice. A drop of 0.5% Alcaine solution was placed on the eye prior to current delivery. The electrodes were subsequently placed gently onto the eyes of the animal and the electrical shock was initiated by triggering through a foot-pedal activator. The animals were restrained by hand and gently released as the shock was delivered and the seizure commenced. Animals were monitored for hind limb tonic extension as the end point for this test. Statistical analysis: All statistics were calculated using Prism version 7 software (Graphpad Software). The method used for each experiment is indicated in the results section. Concentration-response curves were calculated as best fits to the equation […] where X was the log of plasma concentration. Unless indicated otherwise, bottom was constrained to be 0. Top was constrained to be the value determined experimentally by vehicle control measurements. Compound A Dose Response: […]

[2] = Plasma and brain concentrations after MES testing (UHPLC-ESI-MS/MS); conditions: CF-1, mouse, in vivo, po;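 also: brain and plasma were sampled from mice right after the efficacy test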
[3] = Compound A 1 mg/kg PO, 0.5 h before assay
[4] = Compound A 1 mg/kg PO, 2 h before assay
[5] = Compound A 2 mg/kg PO, 0.5 h before assay
[6] = Compound A 2 mg/kg PO, 2 h before assay
[7] = Compound A 4 mg/kg PO, 0.5 h before assay
[8] = Compound A 4 mg/kg PO, 2 h before assay
[9] = Compound A 8 mg/kg PO, 0.5 h before assay
[10] = Compound A 8 mg/kg PO, 2 h before assay

## Cc1cc(N2CCc3cc(F)ccc3C2)cc(C)c1NC(=O)CC(C)(C)C [Compound A, N-[4-(6-fluoro-3,4-dihydro-1H-isoquinolin-2-yl)-2,6-dimethylphenyl]-3,3-dimethylbutanamide]
CF-1 mice
  brain concentration of the one animal that showed tremor and was cold to the touch: 1650 nM
  plasma concentration of the one animal that showed tremor and was cold to the touch: 1160 nM
[1]; Compound A 0.25 mg/kg PO 2 h alone (phenytoin study)
  fraction of animals without tonic seizures: 0/8
[1]; Compound A 0.75 mg/kg PO 2 h alone (phenytoin study)
  fraction of animals without tonic seizures: 2/8
[1]; Compound A 1 mg/kg
  reduction of the fraction with tonic seizures: 26.7%
[1]; Compound A 1 mg/kg PO 2 h
  maximum % seizures of fitted curve, reflecting efficacy of Compound A alone: 73.3%
[1]; Compound A 1 mg/kg PO 2 h + Vehicle IP 0.5 h (valproic acid study)
  number of mice without tonic seizures/total: 4/15
[1]; Compound A 1 mg/kg PO 2 h alone (levetiracetam study)
  fraction of mice without tonic seizures: 2/11
[1]; Compound A 1 mg/kg PO 2 h alone (phenytoin study)
  fraction of animals without tonic seizures: 2/8
[1]; [3]
  number of mice with tonic seizures/total number tested: 4/7
  percentage of mice protected from hindlimb tonic extensor component: 42.9%
[1]; [4]
  number of mice with tonic seizures/total number tested: 5/7
  percentage of mice protected from hindlimb tonic extension: 28.6%
[1]; [5]
  number of mice with tonic seizures/total number tested: 2/7
  percentage of mice protected from hindlimb tonic extensor component: 71.4%
[1]; [6]
  number of mice with tonic seizures/total number tested: 4/7
  percentage of mice protected from hindlimb tonic extension: 42.9%
[1]; Compound A 2.5 mg/kg PO 2 h alone (phenytoin study)
  fraction of animals without tonic seizures: 4/8
[1]; [7]
  number of mice with tonic seizures/total number tested: 1/7
  percentage of mice protected from hindlimb tonic extensor component: 85.7%
[1]; [8]
  number of mice with tonic seizures/total number tested: 2/7
  percentage of mice protected from hindlimb tonic extension: 71.4%
[1]; [9]
  number of mice with tonic seizures/total number tested: 3/7
  percentage of mice protected from hindlimb tonic extensor component: 71.4%
[1]; [10]
  number of mice with tonic seizures/total number tested: 1/7
  percentage of mice protected from hindlimb tonic extension: 85.7%
[1]; Compound A […] PO 2 h alone (levetiracetam study)
  fraction of mice without tonic seizures: 3/8
[1]; Compound A PO alone, data 2 hours after dosing, read-out: IC50 based upon brain concentration (inhibition of tonic seizures)
  IC50: 0.275 µM
[1]; Compound A PO alone, data 2 hours after dosing, read-out: IC50 based upon plasma concentration (inhibition of tonic seizures)
  IC50: 0.154 µM
[1]; Compound A alone (phenytoin study), read-out: IC50 for Compound A (inhibition of tonic seizures, plasma concentration)
  IC50: 0.147 µM
[2]; 1 mg/kg, Concentration Brain, Compound A 1 mg/kg PO single dose, tissue collection 0.5 hr
  concentration at 0.5 h: 270 nM
[2]; 1 mg/kg, Concentration Brain, Compound A 1 mg/kg PO single dose, tissue collection 2 hr
  concentration at 2 h: 190 nM
[2]; 1 mg/kg, Concentration Brain, Compound A 1 mg/kg PO, 0.5 hr
  concentration at 0.5 h: 97.9 ng/g
[2]; 1 mg/kg, Concentration Brain, Compound A 1 mg/kg PO, 2 hr
  concentration at 2 h: 70.2 ng/g
[2]; 1 mg/kg, Concentration Plasma, Compound A 1 mg/kg PO single dose, tissue collection 0.5 hr
  concentration at 0.5 h: 130 nM
[2]; 1 mg/kg, Concentration Plasma, Compound A 1 mg/kg PO single dose, tissue collection 2 hr
  concentration at 2 h: 100 nM
[2]; 1 mg/kg, Concentration Plasma, Compound A 1 mg/kg PO, 0.5 hr
  concentration at 0.5 h: 48.9 ng/mL
[2]; 1 mg/kg, Concentration Plasma, Compound A 1 mg/kg PO, 2 hr
  concentration at 2 h: 35.8 ng/mL
[2]; 2 mg/kg, Concentration Brain, Compound A 2 mg/kg PO single dose, tissue collection 0.5 hr
  concentration at 0.5 h: 360 nM
[2]; 2 mg/kg, Concentration Brain, Compound A 2 mg/kg PO single dose, tissue collection 2 hr
  concentration at 2 h: 210 nM
[2]; 2 mg/kg, Concentration Brain, Compound A 2 mg/kg PO, 0.5 hr
  concentration at 0.5 h: 132 ng/g
[2]; 2 mg/kg, Concentration Brain, Compound A 2 mg/kg PO, 2 hr
  concentration at 2 h: 75.8 ng/g
[2]; 2 mg/kg, Concentration Plasma, Compound A 2 mg/kg PO single dose, tissue collection 0.5 hr
  concentration at 0.5 h: 220 nM
[2]; 2 mg/kg, Concentration Plasma, Compound A 2 mg/kg PO single dose, tissue collection 2 hr
  concentration at 2 h: 130 nM
[2]; 2 mg/kg, Concentration Plasma, Compound A 2 mg/kg PO, 0.5 hr
  concentration at 0.5 h: 80.7 ng/mL
[2]; 2 mg/kg, Concentration Plasma, Compound A 2 mg/kg PO, 2 hr
  concentration at 2 h: 46.7 ng/mL
[2]; 4 mg/kg, Concentration Brain, Compound A 4 mg/kg PO single dose, tissue collection 0.5 hr
  concentration at 0.5 h: 640 nM
[2]; 4 mg/kg, Concentration Brain, Compound A 4 mg/kg PO single dose, tissue collection 2 hr
  concentration at 2 h: 360 nM
[2]; 4 mg/kg, Concentration Brain, Compound A 4 mg/kg PO, 0.5 hr
  concentration at 0.5 h: 235 ng/g
[2]; 4 mg/kg, Concentration Brain, Compound A 4 mg/kg PO, 2 hr
  concentration at 2 h: 131 ng/g
[2]; 4 mg/kg, Concentration Plasma, Compound A 4 mg/kg PO single dose, tissue collection 0.5 hr
  concentration at 0.5 h: 420 nM
[2]; 4 mg/kg, Concentration Plasma, Compound A 4 mg/kg PO single dose, tissue collection 2 hr
  concentration at 2 h: 230 nM
[2]; 4 mg/kg, Concentration Plasma, Compound A 4 mg/kg PO, 0.5 hr
  concentration at 0.5 h: 154 ng/mL
[2]; 4 mg/kg, Concentration Plasma, Compound A 4 mg/kg PO, 2 hr
  concentration at 2 h: 83 ng/mL
[2]; 8 mg/kg, Concentration Brain, Compound A 8 mg/kg PO single dose, tissue collection 0.5 hr
  concentration at 0.5 h: 1090 nM
[2]; 8 mg/kg, Concentration Brain, Compound A 8 mg/kg PO single dose, tissue collection 2 hr
  concentration at 2 h: 560 nM
